Structures are written as SMILES.

The target of data set [1] is T1, human histamine H3 receptor (Homo sapiens, UniProt Q9Y5N1).
T1 construct: One microgram of supercoiled H3 receptor cDNA was added to the cells and mixed; expressed in transfected cells; membranes
The data set is described as follows: [3H]-N-methylhistamine binding. The method in brief:
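Membranes from SK-N-MC cells stably transfected with human H3 receptor, incubated 45 min at 25° C. with 0.8 nM [3H]-N-methylhistamine in Tris/EDTA pH 7.4. Filtration and scintillation counting; 10 μM histamine defined non-specific binding. Ki from IC50 via Cheng-Prusoff (Kd 800 pM, [L] 800 pM).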

[2] abbreviates: [3H]-N-methylhistamine 0.8 nM, membranes of H3 receptor-expressing SK-N-MC cells.

T1 sequence (Q9Y5N1 whole entry): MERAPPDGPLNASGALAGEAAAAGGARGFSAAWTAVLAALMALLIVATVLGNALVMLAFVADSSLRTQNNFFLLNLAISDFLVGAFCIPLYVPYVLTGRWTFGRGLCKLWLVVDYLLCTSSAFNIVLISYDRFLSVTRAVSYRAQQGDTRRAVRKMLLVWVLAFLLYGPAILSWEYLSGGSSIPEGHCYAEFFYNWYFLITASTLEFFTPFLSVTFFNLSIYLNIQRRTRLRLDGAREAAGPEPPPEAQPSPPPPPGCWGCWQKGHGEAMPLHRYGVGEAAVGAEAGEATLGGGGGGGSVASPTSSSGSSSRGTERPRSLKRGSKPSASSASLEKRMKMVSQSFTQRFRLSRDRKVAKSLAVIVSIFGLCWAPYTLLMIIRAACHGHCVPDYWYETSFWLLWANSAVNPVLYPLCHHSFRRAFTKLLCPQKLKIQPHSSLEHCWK

The melting point is the temperature of the solid-liquid transition. `Brc1cccc([C@H]2CC[C@H]3CCCCN32)c1` (racemic) had a melting point of 195 to 198 °C. Broadly, the Ki is a measure of affinity in units of concentration, obtained from inhibition or displacement. The molecule `c1cc([C@@H]2CC[C@@H]3CCCCN32)ccc1NCCCCCN1CCCCC1` (relative stereo) [Example 115, trans-3-[4-(N-5-Piperidylpentylamino)phenyl]octahydroindolizine] showed a Ki in data set [1] (setting [2]) of 0.0007 µM.

`O=Cc1ccsc1-c1ccc([C@H]2CC[C@H]3CCCCN32)cc1` (racemic) [Example 51] yielded a Ki in data set [1] (Table 3, [3H]-N-methylhistamine binding) of 0.132 µM.

As for `Nc1ccc(Oc2ccc([C@H]3CC[C@H]4CCCCN43)cc2)cc1` (racemic) [Example 78, trans-3-[4-(4-Aminophenoxy)phenyl]octahydroindolizine], the Ki in data set [1] (setting [2]) is 0.296 µM.

These data come from US20050288323A1, “Octahydro-indolizine and quinolizine and hexahydro-pyrrolizine” (priority 2000, published 2005).
